Patent US6706663B2, “Herbicidal 3-heterocyclic substituted benzisothiazole and benzisoxazole compounds” (Wyeth, priority 2000, dated 2004)

How the values were obtained:
[1] = test system: ABUTH (Abutilon theophrasti); assay: Postemergence herbicidal evaluation; assay type: in vivo, Medic.; details: postemergence
Method in brief: (§1)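 Visual 0–9 injury scores versus control plants, covering stand, vigour, malformation, size, chlorosis and general appearance, taken four to five weeks post-spray and averaged over replicate tests. Plants were sprayed at roughly two weeks old and held on greenhouse benches.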

[2] = test system: AMBEL (Ambrosia artemisifolia); assay: Postemergence herbicidal evaluation; assay type: in vivo, L.; details: postemergence
Method in brief: as §1

[3] = test system: CASOB (Cassia obtusifolia); assay: Postemergence herbicidal evaluation; assay type: in vivo, L.; details: postemergence
Method in brief: as §1

[4] = test system: CHEAL (Chenopodium album); assay: Postemergence herbicidal evaluation; assay type: in vivo, L.; details: postemergence
Method in brief: as §1

GALAP (Galium aparine) [5] = assay: Postemergence herbicidal evaluation; assay type: in vivo; details: postemergence
Method in brief: as §1

[6] = test system: IPOHE (Ipomoea hederacea); assay: Postemergence herbicidal evaluation; assay type: in vivo, (L.) Jacq.; details: postemergence
Method in brief: as §1

SETVI (Setaria viridis) [7] = assay: Postemergence herbicidal evaluation; assay type: in vivo, (L.) Beau; details: postemergence
Method in brief: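 Ratings use a 0-9 visual scale covering stand, vigor, malformation, size, chlorosis and appearance versus a control, scored 4-5 weeks post-spray. Roughly two-week-old seedlings received about 0.0040-1.000 kg/ha active, applied in 50/50 acetone/water with 0.5% TWEEN 20. Multiple tests per compound were averaged.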

ORYSAT (Rice, Tebonnet) [8] = assay: Postemergence herbicidal evaluation; assay type: in vivo, Oryza sativa, (L.) Tebonnet; details: postemergence
Method in brief: as §1

[9] = test system: TRZAWR (Wheat, Winter, cv Riband); assay: Postemergence herbicidal evaluation; assay type: in vivo, Triticum aestivum; details: postemergence
Method in brief: as §1

[10] = test system: AMBEL (Ambrosia artemisifolia); assay: Preemergence herbicidal evaluation; assay type: in vivo, L.; details: rated 4-5 weeks after treatment
Method in brief: (§2)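 Steps: mix seeds with potting soil; plant on ~1 inch soil per cup; spray compound in aqueous acetone; hold on greenhouse benches with routine watering; rate 0–9 visually against control at 4–5 weeks.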

[11] = test system: CASOB (Cassia obtusifolia); assay: Preemergence herbicidal evaluation; assay type: in vivo, L.; details: rated 4-5 weeks after treatment
Method in brief: as §2

[12] = test system: CHEAL (Chenopodium album); assay: Preemergence herbicidal evaluation; assay type: in vivo, L.; details: rated 4-5 weeks after treatment
Method in brief: as §2

GALAP (Galium aparine) [13] = assay: Preemergence herbicidal evaluation; assay type: in vivo; details: rated 4-5 weeks after treatment
Method in brief: as §2

[14] = test system: ECHCG (Echinochloa crus-galli); assay: Preemergence herbicidal evaluation; assay type: in vivo, (L.) Beau; details: rated 4-5 weeks after treatment
Method in brief: as §2

SETVI (Setaria viridis) [15] = assay: Preemergence herbicidal evaluation; assay type: in vivo, (L.) Beau; details: rated 4-5 weeks after treatment
Method in brief: as §2

ORYSAT (Rice, Tebonnet) [16] = assay: Preemergence herbicidal evaluation; assay type: in vivo, Oryza sativa, (L.) Tebonnet; details: rated 4-5 weeks after treatment
CYPIR (Cyperus iria) = assay: Flooded paddy, preemergence weed control; assay type: in vivo; details: rated 3-4 weeks after treatment, 0-9 rating scale
Method in brief: (§3)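 Seeds or propagating organs were sown in the top 0.5 cm of silt loam soil, flooded, and the water kept 1.5 to 3 cm above the soil surface throughout. Plants were grown in the greenhouse and rated visually on a 0-9 scale against a control.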

[17] = test system: MOOVA (Monochoria vaginalis); assay: Flooded paddy, preemergence weed control; assay type: in vivo, Presl.; details: rated 3-4 weeks after treatment, 0-9 rating scale
Method in brief: as §3

[18] = test system: SAGPY (Sagittaria pygmaea); assay: Flooded paddy, preemergence weed control; assay type: in vivo, L.; details: rated 3-4 weeks after treatment, 0-9 rating scale
Method in brief: as §3

For `Cn1c(C(F)(F)F)cc(=O)n(-c2cc3c(C4OCCCO4)nsc3cc2F)c1=O` [Compound 62, 3-(3-m-dioxan-2-yl-6-fluoro-1,2-benzisothiazol-5-yl)-1-methyl-6-(trifluoromethyl)uracil], the ABUTH herbicidal rating ([1]; rate 0.0320 kg/ha) was 9.0, the ABUTH herbicidal rating ([1]; rate 0.0620 kg/ha) was 9.0 and the AMBEL herbicidal rating ([2]; rate 0.0320 kg/ha) was 9.0. For the same molecule, the AMBEL herbicidal rating ([2]; rate 0.0620 kg/ha) was 9.0, the CASOB herbicidal rating ([3]; rate 0.0320 kg/ha) was 9.0 and the CASOB herbicidal rating ([3]; rate 0.0620 kg/ha) was 9.0. The CHEAL herbicidal rating ([4]; rate 0.0320 kg/ha) was 9.0, the CHEAL herbicidal rating ([4]; rate 0.0620 kg/ha) was 9.0 and the GALAP herbicidal rating (GALAP (Galium aparine) [5]; rate 0.0320 kg/ha) was 9.0. For the same molecule, the GALAP herbicidal rating (GALAP (Galium aparine) [5]; rate 0.0620 kg/ha) was 9.0, the IPOHE herbicidal rating ([6]; rate 0.0320 kg/ha) was 9.0 and the IPOHE herbicidal rating ([6]; rate 0.0620 kg/ha) was 9.0. It also gave an SETVI herbicidal rating (SETVI (Setaria viridis) [7]; rate 0.0320 kg/ha) of 9.0, an SETVI herbicidal rating (SETVI (Setaria viridis) [7]; rate 0.0620 kg/ha) of 9.0 and an ORYSAT herbicidal rating (ORYSAT (Rice, Tebonnet) [8]; rate 0.0320 kg/ha) of 6.0. For the same molecule, the ORYSAT herbicidal rating (ORYSAT (Rice, Tebonnet) [8]; rate 0.0620 kg/ha) was 6.0, the TRZAWR herbicidal rating ([9]; rate 0.0320 kg/ha) was 6.5 and the TRZAWR herbicidal rating ([9]; rate 0.0620 kg/ha) was 6.5. The “Preemergence herbicidal rating AMBEL” value ([10]; Rate 0.0620 kg/ha) was 9.0, the “Preemergence herbicidal rating AMBEL” value ([10]; Rate 0.1250 kg/ha) was 9.0 and the “Preemergence herbicidal rating AMBEL” value ([10]; Rate 0.2500 kg/ha) was 9.0. The “Preemergence herbicidal rating CASOB” value ([11]; Rate 0.0620 kg/ha) was 9.0, the “Preemergence herbicidal rating CASOB” value ([11]; Rate 0.1250 kg/ha) was 9.0 and the “Preemergence herbicidal rating CASOB” value ([11]; Rate 0.2500 kg/ha) was 9.0. For the same molecule, the “Preemergence herbicidal rating CHEAL” value ([12]; Rate 0.0620 kg/ha) was 9.0, the “Preemergence herbicidal rating CHEAL” value ([12]; Rate 0.1250 kg/ha) was 9.0 and the “Preemergence herbicidal rating CHEAL” value ([12]; Rate 0.2500 kg/ha) was 9.0. The “Preemergence herbicidal rating GALAP” value (GALAP (Galium aparine) [13]; Rate 0.0620 kg/ha) was 9.0, the “Preemergence herbicidal rating GALAP” value (GALAP (Galium aparine) [13]; Rate 0.1250 kg/ha) was 9.0 and the “Preemergence herbicidal rating GALAP” value (GALAP (Galium aparine) [13]; Rate 0.2500 kg/ha) was 9.0. For the same molecule, the “Preemergence herbicidal rating ECHCG” value ([14]; Rate 0.0620 kg/ha) was 9.0, the “Preemergence herbicidal rating ECHCG” value ([14]; Rate 0.1250 kg/ha) was 9.0 and the “Preemergence herbicidal rating ECHCG” value ([14]; Rate 0.2500 kg/ha) was 9.0. The “Preemergence herbicidal rating SETVI” value (SETVI (Setaria viridis) [15]; Rate 0.0620 kg/ha) was 9.0, the “Preemergence herbicidal rating SETVI” value (SETVI (Setaria viridis) [15]; Rate 0.1250 kg/ha) was 9.0 and the “Preemergence herbicidal rating SETVI” value (SETVI (Setaria viridis) [15]; Rate 0.2500 kg/ha) was 9.0. For the same molecule, the “Preemergence herbicidal rating ORYSAT” value (ORYSAT (Rice, Tebonnet) [16]; Rate 0.0620 kg/ha) was 9.0, the “Preemergence herbicidal rating ORYSAT” value (ORYSAT (Rice, Tebonnet) [16]; Rate 0.1250 kg/ha) was 9.0 and the “Preemergence herbicidal rating ORYSAT” value (ORYSAT (Rice, Tebonnet) [16]; Rate 0.2500 kg/ha) was 9.0. The “herbicidal rating, CYPIR” value (CYPIR (Cyperus iria); rate 0.0080 kg/ha) was 4.5, the “herbicidal rating, CYPIR” value (CYPIR (Cyperus iria); rate 0.0320 kg/ha) was 9.0 and the “herbicidal rating, CYPIR” value (CYPIR (Cyperus iria); rate 0.1250 kg/ha) was 9.0. For the same molecule, the “herbicidal rating, MOOVA” value ([17]; rate 0.0080 kg/ha) was 8.0, the “herbicidal rating, MOOVA” value ([17]; rate 0.0320 kg/ha) was 9.0 and the “herbicidal rating, MOOVA” value ([17]; rate 0.1250 kg/ha) was 9.0. For the same molecule, the “herbicidal rating, SAGPY” value ([18]; rate 0.0080 kg/ha) was 9.0, the “herbicidal rating, SAGPY” value ([18]; rate 0.0320 kg/ha) was 6.0 and the “herbicidal rating, SAGPY” value ([18]; rate 0.1250 kg/ha) was 9.0.

For `COCC1COC(c2nsc3ccc(-n4c(=O)cc(C(F)(F)F)n(C)c4=O)cc23)O1` (stereo not drawn) [Compound 64, 3-[3-[4-(methoxymethyl)-1,3-dioxolan-2-yl]-1,2-benzisothiazol-5-yl]-1-methyl-6-(trifluoromethyl)uracil], the ABUTH herbicidal rating ([1]; rate 0.0320 kg/ha) was 9.0, the ABUTH herbicidal rating ([1]; rate 0.0620 kg/ha) was 9.0 and the AMBEL herbicidal rating ([2]; rate 0.0320 kg/ha) was 9.0. The AMBEL herbicidal rating ([2]; rate 0.0620 kg/ha) was 9.0, the CASOB herbicidal rating ([3]; rate 0.0320 kg/ha) was 4.0 and the CASOB herbicidal rating ([3]; rate 0.0620 kg/ha) was 5.0. For the same molecule, the CHEAL herbicidal rating ([4]; rate 0.0320 kg/ha) was 9.0, the CHEAL herbicidal rating ([4]; rate 0.0620 kg/ha) was 9.0 and the GALAP herbicidal rating (GALAP (Galium aparine) [5]; rate 0.0320 kg/ha) was 9.0. The GALAP herbicidal rating (GALAP (Galium aparine) [5]; rate 0.0620 kg/ha) was 9.0, the IPOHE herbicidal rating ([6]; rate 0.0320 kg/ha) was 9.0 and the IPOHE herbicidal rating ([6]; rate 0.0620 kg/ha) was 9.0. The SETVI herbicidal rating (SETVI (Setaria viridis) [7]; rate 0.0320 kg/ha) was 6.0, the SETVI herbicidal rating (SETVI (Setaria viridis) [7]; rate 0.0620 kg/ha) was 7.0 and the ORYSAT herbicidal rating (ORYSAT (Rice, Tebonnet) [8]; rate 0.0320 kg/ha) was 5.0. The ORYSAT herbicidal rating (ORYSAT (Rice, Tebonnet) [8]; rate 0.0620 kg/ha) was 5.5, the TRZAWR herbicidal rating ([9]; rate 0.0320 kg/ha) was 4.0 and the TRZAWR herbicidal rating ([9]; rate 0.0620 kg/ha) was 5.0. The “Preemergence herbicidal rating AMBEL” value ([10]; Rate 0.0620 kg/ha) was 9.0, the “Preemergence herbicidal rating AMBEL” value ([10]; Rate 0.1250 kg/ha) was 9.0 and the “Preemergence herbicidal rating AMBEL” value ([10]; Rate 0.2500 kg/ha) was 9.0. For the same molecule, the “Preemergence herbicidal rating CASOB” value ([11]; Rate 0.0620 kg/ha) was 7.5, the “Preemergence herbicidal rating CASOB” value ([11]; Rate 0.1250 kg/ha) was 9.0 and the “Preemergence herbicidal rating CASOB” value ([11]; Rate 0.2500 kg/ha) was 9.0. The “Preemergence herbicidal rating CHEAL” value ([12]; Rate 0.0620 kg/ha) was 9.0, the “Preemergence herbicidal rating CHEAL” value ([12]; Rate 0.1250 kg/ha) was 9.0 and the “Preemergence herbicidal rating CHEAL” value ([12]; Rate 0.2500 kg/ha) was 9.0. For the same molecule, the “Preemergence herbicidal rating GALAP” value (GALAP (Galium aparine) [13]; Rate 0.0620 kg/ha) was 9.0, the “Preemergence herbicidal rating GALAP” value (GALAP (Galium aparine) [13]; Rate 0.1250 kg/ha) was 9.0 and the “Preemergence herbicidal rating GALAP” value (GALAP (Galium aparine) [13]; Rate 0.2500 kg/ha) was 9.0. For the same molecule, the “Preemergence herbicidal rating ECHCG” value ([14]; Rate 0.0620 kg/ha) was 9.0, the “Preemergence herbicidal rating ECHCG” value ([14]; Rate 0.1250 kg/ha) was 9.0 and the “Preemergence herbicidal rating ECHCG” value ([14]; Rate 0.2500 kg/ha) was 9.0. The “Preemergence herbicidal rating SETVI” value (SETVI (Setaria viridis) [15]; Rate 0.0620 kg/ha) was 9.0, the “Preemergence herbicidal rating SETVI” value (SETVI (Setaria viridis) [15]; Rate 0.1250 kg/ha) was 9.0 and the “Preemergence herbicidal rating SETVI” value (SETVI (Setaria viridis) [15]; Rate 0.2500 kg/ha) was 9.0. The “Preemergence herbicidal rating ORYSAT” value (ORYSAT (Rice, Tebonnet) [16]; Rate 0.0620 kg/ha) was 8.5, the “Preemergence herbicidal rating ORYSAT” value (ORYSAT (Rice, Tebonnet) [16]; Rate 0.1250 kg/ha) was 9.0 and the “Preemergence herbicidal rating ORYSAT” value (ORYSAT (Rice, Tebonnet) [16]; Rate 0.2500 kg/ha) was 9.0. For the same molecule, the “herbicidal rating, CYPIR” value (CYPIR (Cyperus iria); rate 0.0080 kg/ha) was 1.5, the “herbicidal rating, CYPIR” value (CYPIR (Cyperus iria); rate 0.0320 kg/ha) was 6.0 and the “herbicidal rating, CYPIR” value (CYPIR (Cyperus iria); rate 0.1250 kg/ha) was 9.0. The “herbicidal rating, MOOVA” value ([17]; rate 0.0080 kg/ha) was 0.0, the “herbicidal rating, MOOVA” value ([17]; rate 0.0320 kg/ha) was 9.0 and the “herbicidal rating, MOOVA” value ([17]; rate 0.1250 kg/ha) was 9.0. The “herbicidal rating, SAGPY” value ([18]; rate 0.0080 kg/ha) was 0.0, the “herbicidal rating, SAGPY” value ([18]; rate 0.0320 kg/ha) was 3.0 and the “herbicidal rating, SAGPY” value ([18]; rate 0.1250 kg/ha) was 9.0.
